According to patent US8901133B2, “Heterocyclic compounds and uses thereof” (Infinity Pharmaceuticals, Inc., priority 2010, dated 2014):

Key:
Type in all cases: biochemical
PI3Kγ = biological target: T1, PI3Kγ (Homo sapiens, UniProt P48736); assay: PI3 Kinase HTRF assay, PI3Kγ; settings: 10 μM PIP2, 10 μM ATP; read-out: PI3K γ IC50
T1 construct: purchased Millipore Corporation 14-558-K
Excerpt: (§1) A PI3 Kinase HTRF® assay kit (cat No. 33-016) purchased from Millipore Corporation was used to screen compounds disclosed herein. This assay used specific, high affinity binding of the GRP1 pleckstrin homology (PH) domain to PIP3, the product of a Class 1A or 1B PI3 Kinase acting on its physiological substrate PIP2. During the detection phase of the assay, a complex was generated between the GST-tagged PH domain and biotinylated short chain PIP3. The biotinylated PIP3 and the GST-tagged PH domain recruited fluorophores (Streptavidin-Allophycocyanin and Europium-labeled anti-GST respectively) to form the fluorescence resonance energy transfer (FRET) architecture, generating a stable time-resolved FRET signal. The FRET complex was disrupted in a competitive manner by non-biotinylated PIP3, a product formed in the PI3 Kinase assay.
(§2) PI3 Kinase α, β, γ and δ activity was assayed using the PI3 Kinase HTRF® assay kit (catalogue No. 33-016) purchased from Millipore Corporation. Purified recombinant PI3Kα (catalogue No. 14-602-K), PI3Kβ (catalogue No. 14-603-K), PI3Kγ (catalogue No. 14-558-K) and PI3Kδ (catalogue No. 14-604-K) were obtained from Millipore Corporation. Purified recombinant PI3K enzyme was used to catalyze the phosphorylation of phosphatidylinositol 4,5-bisphosphate (PIP2 at 10 μM) to phosphatidylinositol 3,4,5-trisphosphate (PIP3) in the presence of 10 μM ATP. The assay was carried out in 384-well format and detected using a Perkin Elmer En Vision Xcite Multilabel Reader. Emission ratios were converted into percent inhibitions and imported into GraphPad Prism software. The concentration necessary to achieve inhibition of enzyme activity by 50% (IC50) was calculated using concentrations ranging from 20 μM to 0.1 nM (12-point curve). IC50 values were determined using a nonlinear regression model available in GraphPad Prism 5. […]

PI3Kα = biological target: T2, PI3Kα (Homo sapiens, UniProt P42336); assay: PI3 Kinase HTRF assay, PI3Kα; settings: 10 μM PIP2, 10 μM ATP; read-out: PI3K α IC50
T2 construct: purchased Millipore Corporation 14-602-K
Excerpt: as §1, §2

PI3Kβ = biological target: T3, PI3Kβ (Homo sapiens, UniProt P42338); assay: PI3 Kinase HTRF assay, PI3Kβ; settings: 10 μM PIP2, 10 μM ATP; read-out: PI3K β IC50
T3 construct: purchased Millipore Corporation 14-603-K
Excerpt: as §1, §2

PI3Kδ = biological target: T4, PI3Kδ (Homo sapiens, UniProt O00329); assay: PI3 Kinase HTRF assay, PI3Kδ; settings: 10 μM PIP2, 10 μM ATP; read-out: PI3K δ IC50
T4 construct: purchased Millipore Corporation 14-604-K
Excerpt: as §1, §2

T2 sequence (P42336 whole entry): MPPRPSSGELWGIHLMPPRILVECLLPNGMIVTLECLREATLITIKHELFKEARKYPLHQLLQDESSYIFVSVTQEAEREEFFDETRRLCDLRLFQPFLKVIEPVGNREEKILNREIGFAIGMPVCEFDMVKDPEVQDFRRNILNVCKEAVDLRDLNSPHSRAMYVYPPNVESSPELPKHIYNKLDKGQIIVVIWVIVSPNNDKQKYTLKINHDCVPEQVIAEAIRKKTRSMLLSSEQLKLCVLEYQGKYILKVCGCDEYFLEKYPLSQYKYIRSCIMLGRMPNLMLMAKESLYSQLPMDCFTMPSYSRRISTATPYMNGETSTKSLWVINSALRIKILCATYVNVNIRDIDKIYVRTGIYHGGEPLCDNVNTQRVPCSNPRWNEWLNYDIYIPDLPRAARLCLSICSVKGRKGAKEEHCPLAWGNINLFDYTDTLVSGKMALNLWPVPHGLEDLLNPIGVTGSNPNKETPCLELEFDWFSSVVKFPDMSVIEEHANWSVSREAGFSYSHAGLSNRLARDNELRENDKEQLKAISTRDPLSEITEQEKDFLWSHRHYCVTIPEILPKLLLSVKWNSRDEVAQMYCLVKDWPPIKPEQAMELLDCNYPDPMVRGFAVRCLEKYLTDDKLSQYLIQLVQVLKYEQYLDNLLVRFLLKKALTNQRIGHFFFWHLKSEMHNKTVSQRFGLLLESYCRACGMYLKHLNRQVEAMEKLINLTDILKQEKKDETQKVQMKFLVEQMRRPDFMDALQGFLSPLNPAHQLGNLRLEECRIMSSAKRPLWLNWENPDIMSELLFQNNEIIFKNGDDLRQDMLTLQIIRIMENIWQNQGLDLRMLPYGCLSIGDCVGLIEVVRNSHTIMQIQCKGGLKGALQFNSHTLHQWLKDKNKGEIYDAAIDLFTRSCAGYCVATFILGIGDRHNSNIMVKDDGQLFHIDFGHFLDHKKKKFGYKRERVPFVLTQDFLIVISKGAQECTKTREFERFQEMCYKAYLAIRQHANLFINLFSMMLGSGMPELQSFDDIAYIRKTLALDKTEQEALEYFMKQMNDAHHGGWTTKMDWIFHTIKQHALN
T2 sequence (P27986 whole entry partner): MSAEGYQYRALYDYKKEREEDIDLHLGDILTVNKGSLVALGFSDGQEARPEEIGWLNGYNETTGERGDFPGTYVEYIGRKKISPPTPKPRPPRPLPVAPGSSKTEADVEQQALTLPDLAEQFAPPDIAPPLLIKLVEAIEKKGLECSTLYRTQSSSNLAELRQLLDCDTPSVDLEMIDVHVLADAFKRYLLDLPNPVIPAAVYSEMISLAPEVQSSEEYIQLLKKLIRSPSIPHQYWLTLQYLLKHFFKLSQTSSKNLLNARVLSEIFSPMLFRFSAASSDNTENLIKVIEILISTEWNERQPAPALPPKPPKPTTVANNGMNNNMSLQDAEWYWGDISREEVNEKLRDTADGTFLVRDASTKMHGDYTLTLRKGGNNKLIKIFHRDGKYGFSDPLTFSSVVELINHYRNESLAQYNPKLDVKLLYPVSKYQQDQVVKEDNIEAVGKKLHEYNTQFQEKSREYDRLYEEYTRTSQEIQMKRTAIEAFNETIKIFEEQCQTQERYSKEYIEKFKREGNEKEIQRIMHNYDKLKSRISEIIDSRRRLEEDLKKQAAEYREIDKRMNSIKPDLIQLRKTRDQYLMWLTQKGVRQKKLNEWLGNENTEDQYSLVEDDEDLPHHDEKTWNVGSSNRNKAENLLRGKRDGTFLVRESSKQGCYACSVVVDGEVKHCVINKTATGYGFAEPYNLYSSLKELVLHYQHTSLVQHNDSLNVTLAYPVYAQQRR
T4 sequence (O00329 whole entry): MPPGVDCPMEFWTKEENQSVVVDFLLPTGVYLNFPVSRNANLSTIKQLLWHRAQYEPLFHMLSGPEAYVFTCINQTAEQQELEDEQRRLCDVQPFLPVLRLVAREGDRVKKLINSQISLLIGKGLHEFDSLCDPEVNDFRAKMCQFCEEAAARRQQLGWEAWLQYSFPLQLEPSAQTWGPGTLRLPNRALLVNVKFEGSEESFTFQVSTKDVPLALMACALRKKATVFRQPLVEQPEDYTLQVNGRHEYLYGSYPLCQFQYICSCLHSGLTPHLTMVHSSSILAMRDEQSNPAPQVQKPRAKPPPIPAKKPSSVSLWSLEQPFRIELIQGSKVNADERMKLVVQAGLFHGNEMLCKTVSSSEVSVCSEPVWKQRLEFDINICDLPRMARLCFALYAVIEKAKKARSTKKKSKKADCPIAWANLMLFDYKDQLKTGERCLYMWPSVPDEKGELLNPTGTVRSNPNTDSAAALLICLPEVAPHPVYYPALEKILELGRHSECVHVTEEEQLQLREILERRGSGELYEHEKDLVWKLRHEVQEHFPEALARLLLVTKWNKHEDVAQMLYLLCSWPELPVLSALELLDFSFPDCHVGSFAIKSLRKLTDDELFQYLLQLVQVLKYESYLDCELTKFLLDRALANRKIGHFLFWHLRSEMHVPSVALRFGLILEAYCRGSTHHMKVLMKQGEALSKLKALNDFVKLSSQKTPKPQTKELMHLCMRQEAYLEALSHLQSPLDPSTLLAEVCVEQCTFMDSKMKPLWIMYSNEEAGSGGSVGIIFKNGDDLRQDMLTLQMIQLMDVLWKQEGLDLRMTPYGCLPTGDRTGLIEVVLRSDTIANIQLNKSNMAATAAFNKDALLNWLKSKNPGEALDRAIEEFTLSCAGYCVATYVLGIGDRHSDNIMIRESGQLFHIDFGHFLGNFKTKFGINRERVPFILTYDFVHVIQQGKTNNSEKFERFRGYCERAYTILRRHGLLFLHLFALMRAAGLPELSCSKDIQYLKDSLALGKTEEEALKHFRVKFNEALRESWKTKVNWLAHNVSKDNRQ
T4 sequence (P27986 whole entry partner): as the sequence (P27986 whole entry partner) above
T1 sequence (P48736 whole entry): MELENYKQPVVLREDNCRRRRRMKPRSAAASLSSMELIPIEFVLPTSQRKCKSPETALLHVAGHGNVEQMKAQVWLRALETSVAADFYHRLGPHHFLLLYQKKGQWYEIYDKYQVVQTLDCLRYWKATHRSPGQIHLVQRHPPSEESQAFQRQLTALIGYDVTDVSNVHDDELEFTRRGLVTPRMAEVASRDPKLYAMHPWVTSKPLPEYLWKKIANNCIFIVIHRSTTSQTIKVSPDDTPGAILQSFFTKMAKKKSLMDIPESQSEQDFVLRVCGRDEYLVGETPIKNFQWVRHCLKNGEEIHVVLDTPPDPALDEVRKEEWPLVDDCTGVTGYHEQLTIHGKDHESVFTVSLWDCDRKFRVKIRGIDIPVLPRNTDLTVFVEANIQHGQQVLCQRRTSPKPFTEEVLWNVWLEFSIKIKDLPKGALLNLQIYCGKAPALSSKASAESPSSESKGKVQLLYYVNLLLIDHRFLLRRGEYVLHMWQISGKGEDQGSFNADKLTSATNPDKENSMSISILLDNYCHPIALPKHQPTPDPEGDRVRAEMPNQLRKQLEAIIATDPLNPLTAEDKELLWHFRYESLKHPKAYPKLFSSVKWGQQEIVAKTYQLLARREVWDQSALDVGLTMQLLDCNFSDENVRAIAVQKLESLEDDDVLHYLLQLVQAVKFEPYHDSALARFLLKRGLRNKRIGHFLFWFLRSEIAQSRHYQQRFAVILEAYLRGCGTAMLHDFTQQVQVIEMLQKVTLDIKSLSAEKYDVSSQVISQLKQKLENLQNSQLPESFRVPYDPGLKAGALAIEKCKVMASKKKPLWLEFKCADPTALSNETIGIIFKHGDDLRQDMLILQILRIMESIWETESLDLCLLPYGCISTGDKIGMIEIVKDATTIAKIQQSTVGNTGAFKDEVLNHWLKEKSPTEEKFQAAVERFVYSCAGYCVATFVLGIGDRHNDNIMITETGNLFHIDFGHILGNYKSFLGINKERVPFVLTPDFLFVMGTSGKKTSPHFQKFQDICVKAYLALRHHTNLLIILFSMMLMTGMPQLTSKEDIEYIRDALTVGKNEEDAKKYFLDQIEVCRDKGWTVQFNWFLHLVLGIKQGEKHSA
T3 sequence (P42338 whole entry): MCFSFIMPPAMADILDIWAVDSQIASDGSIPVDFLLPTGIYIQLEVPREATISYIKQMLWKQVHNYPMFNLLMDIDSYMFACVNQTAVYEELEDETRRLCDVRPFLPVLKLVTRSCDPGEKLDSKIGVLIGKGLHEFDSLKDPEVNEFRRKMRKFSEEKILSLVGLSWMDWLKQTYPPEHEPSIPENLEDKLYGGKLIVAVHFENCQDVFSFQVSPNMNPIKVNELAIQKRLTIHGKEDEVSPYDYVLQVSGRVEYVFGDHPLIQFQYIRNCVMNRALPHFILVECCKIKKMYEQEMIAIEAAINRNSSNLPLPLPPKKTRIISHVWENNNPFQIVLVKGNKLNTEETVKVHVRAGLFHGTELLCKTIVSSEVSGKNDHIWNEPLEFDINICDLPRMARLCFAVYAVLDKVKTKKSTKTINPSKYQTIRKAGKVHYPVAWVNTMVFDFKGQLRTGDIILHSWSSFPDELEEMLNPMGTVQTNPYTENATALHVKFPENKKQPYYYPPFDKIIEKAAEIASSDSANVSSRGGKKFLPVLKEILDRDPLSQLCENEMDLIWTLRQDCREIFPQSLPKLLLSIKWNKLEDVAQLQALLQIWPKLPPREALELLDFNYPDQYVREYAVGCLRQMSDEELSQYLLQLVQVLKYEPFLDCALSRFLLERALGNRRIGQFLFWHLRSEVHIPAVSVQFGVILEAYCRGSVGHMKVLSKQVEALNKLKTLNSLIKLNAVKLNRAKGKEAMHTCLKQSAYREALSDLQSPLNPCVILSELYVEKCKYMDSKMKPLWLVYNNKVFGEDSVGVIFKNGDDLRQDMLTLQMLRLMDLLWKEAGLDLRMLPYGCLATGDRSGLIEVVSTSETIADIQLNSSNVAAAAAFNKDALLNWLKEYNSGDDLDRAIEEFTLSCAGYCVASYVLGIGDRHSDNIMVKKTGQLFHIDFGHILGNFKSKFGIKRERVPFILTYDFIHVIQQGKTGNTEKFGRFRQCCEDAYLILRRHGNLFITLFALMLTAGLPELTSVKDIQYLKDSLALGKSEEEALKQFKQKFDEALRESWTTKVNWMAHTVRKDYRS
T3 sequence (P27986 whole entry partner): as the sequence (P27986 whole entry partner) above

Structure (SMILES) | IC50 (PI3Kγ) [µM] | IC50 (PI3Kα) [µM] | IC50 (PI3Kβ) [µM] | IC50 (PI3Kδ) [µM]
C[C@H](Nc1ncnc2[nH]cnc12)c1cc2cccc(Cl)c2c(CN2CCC2)n1 [Compound 9] | < 10 | > 10 | < 10 | < 1
C[C@H](Nc1ncnc2[nH]cnc12)c1cc2cccc(Cl)c2c(C(=O)N2CC(O)C2)n1 [Compound 22] | < 1 | > 10 | < 10 | < 0.1
C[C@H](Nc1ncnc2[nH]cnc12)c1cc2cccc(Cl)c2c(C(=O)N(C)c2ccccc2)n1 [Compound 27] | < 10 | > 10 | > 10 | < 1
C[C@H](Nc1ncnc2[nH]cnc12)c1cc2cccc(Cl)c2c(C(=O)N2CCC(O)CC2)n1 [Compound 28] | < 1 | > 10 | > 10 | < 0.1
Cc1nc(-c2nc([C@H](C)Nc3ncnc4[nH]cnc34)cc3cccc(Cl)c23)no1 [Compound 32] | < 10 | > 10 | < 10 | < 1
C[C@H](Nc1ncnc2[nH]cnc12)c1cc2cccc(Cl)c2c(CC(=O)N2CCOCC2)n1 [Compound 35] | < 10 | > 10 | > 10 | < 1
C[C@H](Nc1ncnc2[nH]cnc12)c1cc2cccc(Cl)c2c(C(=O)NC2CCOCC2)n1 [Compound 48] | < 10 | > 10 | > 10 | < 0.1
C[C@H](Nc1ncnc2[nH]cnc12)c1cc2cc(F)ccc2c(CCN2CCOCC2)n1 [Compound 55] | > 10 | > 10 | > 10 | < 1
C[C@H](Nc1ncnc2[nH]cnc12)c1cc2cccc(Cl)c2c(C(=O)NC2CCC(O)CC2)n1 (some centres unmarked) [Compound 58] | < 10 | > 10 | > 10 | < 0.1
C[C@H](Nc1ncnc2scnc12)c1cc2cccc(Cl)c2c(CCN2CCOCC2)n1 [Compound 72, (S)—N-(1-(8-chloro-1-(2-morpholinoethyl)isoquinolin-3-yl)ethyl)thiazolo[5,4-d]pyrimidin-7-amine] | < 10 | < 10 | < 1 | < 0.1
C[C@H](Nc1cc(Cl)nn2ccnc12)c1cc2cccc(Cl)c2c(CCN2CCOCC2)n1 [Compound 76, (S)-6-chloro-N-(1-(8-chloro-1-(2-morpholinoethyl)isoquinolin-3-yl)ethyl)imidazo[1,2-b]pyridazin-8-amine] | > 10 | > 10 | > 10 | < 10
C[C@H](Nc1cc(Cl)nn2ccnc12)c1cc2ccccc2c(CCN2CCOCC2)n1 [Compound 78] | > 10 | > 10 | > 10 | < 10
C[C@H](Nc1ncnc2[nH]cnc12)c1nc(CCN2CCOCC2)c2ccccc2c1F [Compound 87] | > 10 | > 10 | > 10 | < 1
C[C@H](Nc1ncnc2[nH]cnc12)c1cc2cccc(Cl)c2c(OCC(C)(C)O)n1 [Compound 88] | < 10 | < 10 | < 10 | < 1
C[C@H](NC(=O)c1nccnc1N)c1cc2cccc(Cl)c2c(CCN2CCOCC2)n1 [Compound 89, (S)-3-amino-N-(1-(8-chloro-1-(2-morpholinoethyl)isoquinolin-3-yl)ethyl)pyrazine-2-carboxamide] | < 10 | > 10 | < 10 | < 1
C[C@H](Nc1ncnc2[nH]cnc12)c1cc2cccc(Cl)c2c(SCC[N+]2([O-])CCOCC2)n1 [Compound 94] | < 1 | < 10 | < 10 | < 0.1
C[C@H](Nc1ncnc2cccnc12)c1cc2cccc(Cl)c2c(N2CCN(C)CC2)n1 [Compound 96] | < 0.1 | < 1 | < 1 | < 0.1
C[C@H](Nc1ccnc2ccnn12)c1cc2cccc(Cl)c2c(N2CCN(C)CC2)n1 [Compound 97] | > 10 | > 10 | < 10 | < 0.1
C[C@H](Nc1ncnc2[nH]cnc12)c1cc2cccc(F)c2c(N2CCN(C)CC2)n1 [Compound 100] | > 10 | > 10 | > 10 | < 0.1

Structure (SMILES) | IC50 (PI3Kγ) [µM] | IC50 (PI3Kα) [µM] | IC50 (PI3Kβ) [µM] | IC50 (PI3Kδ) [µM]
C[C@H](Nc1ncnc2cccnc12)c1cc2cccc(Cl)c2c(OCCN2CCCC2)n1 [Compound 105] | < 1 | < 1 | < 10 | < 0.1
C[C@H](Nc1ccnc2ccnn12)c1cc2cccc(Cl)c2c(OCCN2CCCC2)n1 [Compound 106] | < 10 | > 10 | < 10 | < 0.1
Cc1cccc2cc([C@H](C)Nc3ncnc4[nH]cnc34)nc(N3CCN(C)CC3)c12 [Compound 109] | < 10 | > 10 | < 10 | < 0.1
C[C@H](Nc1ncnc2[nH]cnc12)c1cc2cccc(C(F)(F)F)c2c(N2CCN(C)CC2)n1 [Compound 111] | < 10 | > 10 | < 10 | < 1
C[C@H](Nc1ncnc2cccnc12)c1cc2cccc(Cl)c2c(C(=O)N2CCOCC2)n1 [Compound 115] | < 1 | < 10 | < 10 | < 0.1
C[C@H](NC(=O)c1cnc2cccnn12)c1cc2cccc(Cl)c2c(C(=O)N2CCOCC2)n1 [Compound 117] | < 10 | > 10 | < 10 | < 1
C[C@H](NC(=O)c1nccnc1N)c1cc2cccc(Cl)c2c(C(=O)N2CCOCC2)n1 [Compound 118] | < 10 | > 10 | < 10 | < 1
C[C@H](Nc1ncnc2[nH]cnc12)c1cc2cccc(Cl)c2c(C(=O)N(C)C2CCOCC2)n1 [Compound 126] | < 10 | > 10 | > 10 | < 1
C[C@H](Nc1ncnc2[nH]cnc12)c1cc2cccc(Cl)c2c(OCC(=O)O)n1 [Compound 128, (S)-2-(3-(1-(9H-purin-6-ylamino)ethyl)-8-chloroisoquinolin-1-yloxy)acetic acid] | < 1 | > 10 | > 10 | < 10
C[C@H](Nc1nc(N)ncc1C(F)(F)F)c1cc2cccc(Cl)c2c(CCN2CCOCC2)n1 [Compound 130] | < 10 | > 10 | < 10 | < 0.1
C[C@H](Nc1ncnc2[nH]cnc12)c1cc2cccc(Cl)c2c(S(=O)(=O)CCN2CCOCC2)n1 [Compound 134] | > 10 | > 10 | > 10 | < 1
CNC(=O)NCCOc1nc([C@H](C)Nc2ncnc3[nH]cnc23)cc2cccc(Cl)c12 [Compound 139] | < 10 | > 10 | < 10 | < 1
C[C@H](Nc1ncnc2[nH]cnc12)c1cc2cccc(-c3cnn(C)c3)c2c(N2CCN(C)CC2)n1 [Compound 142] | > 10 | > 10 | < 10 | < 1
C[C@H](Nc1ncnc2cccnc12)c1cc2cccc(Cl)c2c(C(=O)NC2CCOCC2)n1 [Compound 143] | < 10 | > 10 | > 10 | < 1
Cc1cccc2cc([C@H](C)Nc3ncnc4[nH]cnc34)nc(C(=O)N3CCOCC3)c12 [Compound 147] | < 10 | > 10 | > 10 | < 1
C[C@H](Nc1ncnc2cccnc12)c1cc2cccc(-c3cnn(C)c3)c2c(OCCN2CCCC2)n1 [Compound 148] | < 10 | < 10 | > 10 | < 1
C[C@H](Nc1ncnc2cccnc12)c1cc2cccc(-c3cnn(C)c3)c2c(CCN2CCOCC2)n1 [Compound 154] | < 10 | < 10 | > 10 | < 1
C[C@H](Nc1ncnc2cccnc12)c1cc2cccc(Cl)c2c(C(=O)N2CCOC[C@H]2C)n1 [Compound 251] | < 1 | – | – | –
C[C@H](Nc1ncnc2scnc12)c1cc2cccc(Cl)c2c(C(=O)N2CCOC[C@H]2C)n1 [Compound 252] | < 10 | – | – | –
